Results on 1 compound are retold here after patent US11247970B2, “Selective inhibition of gluconeogenic activity” (Dana-Farber Cancer Institute, Inc., priority 2017, dated 2022).

Data set [1] relates to HFD fed mice. Briefly: Fasting blood glucose in HFD fed mice. As to conditions: 45 mg/kg I.P., 3 days and again day 4. Type of data set: in vivo.
Experimental: All mice were purchased from Jackson laboratories and housed under a 12 h light/12 h dark cycle at 22° C. Before handling, mice were allowed to acclimate for at least 1 week in our animal facility. For in vivo studies with DIO mice, males 6-8 weeks old were fed HFD for the indicated time. […] Metformin was re-suspended in the same solution at a 20 mg/ml concentration. […] Metformin was administered via oral gavage. […] Glycemia was measured by tail bleed using a glucometer (OneTouch). For all experiments, age- and body weight-matched animals were used.
Therefore, blood glucose was measured in the fasted state during which the liver plays a major role maintaining glycemia. […] A high fat diet (HFD) fed mice, a dietary model of obesity and T2D, were used.
Data set [2] has as its system HFD-fed mice. Briefly: Hyperinsulinemic-euglycemic clamp. Type of data set: in vivo. On the procedure:
Hyperinsulinemic-euglycemic clamps were performed on mice fed HFD for 16 weeks as previously described with minor modifications (Jurczak et al., 2012). Briefly, an indwelling catheter was surgically implanted in the right jugular vein 7 days prior to study. Three days before study, mice were injected with SR-18292 and vehicle control following the same protocol described above. Mice were fasted overnight prior to clamps and then infused with a fixed amount of insulin [4 mU/(kg-min)] and a variable amount of 20% dextrose to maintain euglycemia. [3-H]glucose was included in the infusate to allow for the calculation of whole-body rates of glucose metabolism.

Data set [3] deals with CREB, TORC2, Akt phosphorylation. Briefly: Western blot of glucagon and insulin signaling in hepatocytes. Type of data set: cell-based, mouse. As to the method:
(§1) For measurement of acetylation, gene expression and glucose production SR-18292 ([…]) was added to cells overnight and fresh compound was added the following day for additional 3 h before collecting the cells (for total of ˜18 h treatment). Where insulin and glucagon stimulation were performed, the medium was changed to starvation medium (DMEM, 0.2% BSA, 2 mM sodium pyruvate, and 1% penicillin/streptomycin) with fresh compound for the last 3 h and cells were stimulated with either 100 nM insulin or 200 nM glucagon for an extra 1.5 h. For glucose measurements following PGC-1α over expression cells were incubated for the last 3 h in glucose-free medium (phenol-red/glucose free DMEM, 0.2% BSA, 2 mM sodium pyruvate and 20 mM sodium lactate or 10 mM glycerol in case glycerol was used as substrate). For glucose measurements following glucagon stimulation cells were incubated for the last 4 h in the same glucose-free medium that also contained glucagon (200 nM). The glucose level in the medium was measured using a glucose assay kit from Eton Bioscience Inc. by adding […] of assay buffer to […] of medium followed by 15 min incubation at 37° C. Absorbance was measured at 490 nm.
A general note: In western blotting, separated proteins are transferred to a membrane and probed.

Data set [4] relates to ob/ob mice. Briefly: Fasting glycemia and liver lipid in leptin deficient ob/ob mice. The note with it: diabetic leptin deficient ob/ob mice. It counts as in vivo.
Data set [5] deals with Pck1 and G6pc gene expression. Briefly: Gluconeogenic gene and protein expression in primary hepatocytes (qPCR, western). Type of data set: cell-based, mouse. As to the method: as §1
siRNA oligos against mouse Ppargc1a were purchased from OriGene (SR420231). Hepatocytes were transfected with a 1:1:1:mixture of 3 unique 27mer siRNA duplexes ([…]) using Lipofectamin RNAiMax (Invitrogen) immediately upon seeding with plating medium. The following morning cells were washed with PBS and medium was changed to maintenance medium. In the afternoon, cells were transfected again and compound treatment started.
Total RNA was extracted from cells or pulverized liver using TRIzol reagent (Ambion, Life Technologies), followed by cDNA preparation from 2 μg of total RNA with a High-Capacity cDNA Reverse Transcription Kit (Applied Biosystems). cDNA products were quantified by real-time PCR using Power SYBR Green PCR Master Mix (Applied Biosystems) on a CFX384 Real-Time PCR System (Bio-Rad). To calculate IC50 from C-80 dose response, curves were fit to the hill equation in a similar manner used to calculate estimated AC50 from the high-throughput qPCR screen. However, unlike the curves from the qPCR high-throughput screen, values of relative repression were used rather than of delta-Ct.

Data set [6] concerns HFD fed mice. Briefly: Chronic 14 day treatment of HFD mice. Type of data set: in vivo. On the procedure: FIG. 57 is a plot monitoring body weight over a period of days. Mice fed HFD for 6 weeks were injected daily with SR-18292 for a total of 14 days and body weight was monitored during the treatment.
FIG. 58 is a series of bar graphs monitoring blood glucose. Mice were fasted at day 3 and 13 and fasting blood glucose was measured at day 4 and 14. Fed blood glucose was also measured at day 10. n=10, *P<0.05.
In addition, liver toxicity, as measured by serum levels of alanine transaminase (ALT), aspartate aminotransferase (AST), lactate dehydrogenase (LDH) and bilirubin, was not observed in mice treated with SR-18292 (Table 6). […] To assess the contribution of PGC-1α in mediating the in vivo effects of SR-18292, hepatic PGC-1α in Lep^ob/ob mice was depleted using shRNA and observed a significant reduction in basal blood glucose concentrations compared to control. […] To fully assess the effects of SR-18292 on whole body glucose homeostasis and insulin resistance, a glucose tolerance test (GTT) and insulin tolerance test (ITT) were performed following the same protocol used to determine fasting blood glucose. […] As expected, insulin levels after GTT were lower in the treated group (FIG. 51). […] To test if SR-18292 chronic treatment will cause similar anti-diabetic effects, mice were treated for a period of 14 days.

Data set [7] addresses T1, GCN5 (Homo sapiens, UniProt Q92830).
T1 construct: made in house; host or cells: U-2 OS cells overexpressing Ad-GCN5; FLAG immunoprecipitation, elution with 3×FLAG peptide
Briefly: GCN5 HAT activity assay. The note with it: H3 peptide. Type of data set: biochemical. As to the method:
For determination of GCN5 HAT activity U-2 OS cells overexpressing Ad-GCN5 were treated with SR-18292 ([…]) for 18 h. Cells were lysed with buffer B (20 mM HEPES-KOH (pH 7.9), 125 mM NaCl, 1 mM EDTA, 1 mM DTT, 1% IGEPAL (v/v), 10% glycerol (v/v), 5 mM NaF, 5 mM β-glycerophosphate, 5 mM sodium butyrate and 10 mM nicotinamide), supplemented with Protease Inhibitor Cocktail. FLAG-GCN5 was immunoprecipitated with FLAG beads overnight at 4° C. following multiple washes with lysis buffer. GCN5 was then eluted using 3×FLAG peptide and the purified protein was used to determine HAT activity using the HAT Inhibitor Screening Assay Kit (Cayman Chemicals) per manufacturer instructions. To determine the potential effect of SR-18292 on GCN5 activity in vitro, GCN5 was purified from U-2 OS cells in a similar manner but without treatment with SR-18292.

“Also recorded” adds a separate entry of the source.

T1 sequence (Q92830 whole entry, species assumed): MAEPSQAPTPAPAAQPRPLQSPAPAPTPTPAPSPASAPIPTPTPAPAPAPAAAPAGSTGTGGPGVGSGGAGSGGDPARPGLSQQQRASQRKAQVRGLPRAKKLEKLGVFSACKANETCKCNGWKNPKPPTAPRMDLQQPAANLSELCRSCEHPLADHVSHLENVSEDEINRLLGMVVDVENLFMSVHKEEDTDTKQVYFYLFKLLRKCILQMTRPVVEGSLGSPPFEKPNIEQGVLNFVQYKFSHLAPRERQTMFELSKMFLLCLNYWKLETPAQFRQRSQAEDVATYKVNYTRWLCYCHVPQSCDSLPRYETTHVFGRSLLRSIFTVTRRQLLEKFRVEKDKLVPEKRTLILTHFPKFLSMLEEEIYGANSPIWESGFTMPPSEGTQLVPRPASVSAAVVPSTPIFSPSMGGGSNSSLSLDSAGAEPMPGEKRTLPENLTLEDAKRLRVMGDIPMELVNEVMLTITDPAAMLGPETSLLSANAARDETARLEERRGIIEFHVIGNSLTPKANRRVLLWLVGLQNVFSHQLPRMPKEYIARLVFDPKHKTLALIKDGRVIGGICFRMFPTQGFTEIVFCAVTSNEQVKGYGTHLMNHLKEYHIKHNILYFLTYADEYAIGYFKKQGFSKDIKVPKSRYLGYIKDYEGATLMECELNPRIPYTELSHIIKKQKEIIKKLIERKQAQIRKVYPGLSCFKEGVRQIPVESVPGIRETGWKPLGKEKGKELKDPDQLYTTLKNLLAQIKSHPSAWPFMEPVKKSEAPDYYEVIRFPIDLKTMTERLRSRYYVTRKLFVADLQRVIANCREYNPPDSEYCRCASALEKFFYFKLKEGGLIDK

In the case of `Cc1ccc(CN(CC(O)COc2cccc3[nH]ccc23)C(C)(C)C)cc1` (stereo not shown) [SR-18292, 1-((1H-indol-4-yl)oxy)-3-(tert-butyl(4-methylbenzyl)amino)propan-2-ol], the “fasting blood glucose vs vehicle” value in data set [1] is reported as “significantly lower”. In data set [2] (HFD 16 weeks), the “glucose infusion rate vs vehicle” value is listed as “substantially higher” and the peripheral glucose uptake result was “not due to improved peripheral glucose uptake”. For the same compound, in data set [2] (basal and clamp conditions), the endogenous glucose production entry is reported as “reduced endogenous glucose production”. Also, in data set [3] (glucagon 200 nM), the “glucagon-induced phosphorylation of CREB and dephosphorylation of CRTC2” value is recorded as “without disrupting”. Moreover, the “cell autonomous enhancement of insulin signaling (Akt S473)” value in data set [3] (insulin 100 nM) was “not observed”. Further, in data set [4], the fasting glycemia entry was “improved fasting glycemia” and the “lipid accumulation in liver” value is recorded as “without altering lipid accumulation in liver”. The “gene expression after short treatment” value in data set [5] (3 hr treatment) is reported as “no effect”. Further, in data set [5] (Ad-PGC-1α infected hepatocytes), the “gluconeogenic gene and protein expression induced by ectopic PGC-1α” value is “significantly reduced”. In data set [5] (glucagon 200 nM), the “glucagon-stimulated Pck1 and G6pc gene expression” value is on record as “significantly reduced”. Besides, the PEPCK protein levels entry in data set [5] (hepatocytes infected with Ad-PGC-1α) is listed as “reduced”. Further, in data set [5] (siRNA against Ppargc1a), the “suppression of Pck1 and G6pc after siRNA knock down of PGC-1α” value is “significantly impairs the ability of SR-18292 to suppress Pck1 and G6pc”. Besides, in data set [6] (14 days daily treatment), the “ability to reduce blood glucose” value was “sustained” and the body weight entry was “without resulting in changes in body weight”. In addition, the “toxicity by serum ALT and AST, H&E staining of liver, proinflammatory genes” value in data set [6] (14 days treatment) is given as “did not cause any signs of toxicity”. Also, in data set [6] (after 14 days, n=10), the “H&E staining of liver slices assessed by pathologist” value was “no sign of toxicity was observed”; the “liver triglycerides and cholesterol levels” value is recorded as “not altered”; the “serum ALT and AST levels” value was “not altered”; the “serum lactate, β-hydroxybutyrate and cholesterol levels” value was “not altered”. In addition, in data set [7] (U-2 OS cells treated 18 h), the “catalytic (HAT) activity of GCN5 immunoprecipitated from treated cells” value is “not changed; also recorded: not increased”. In data set [7] (in vitro treatment), the “GCN5 HAT activity on in vitro treatment of IPed GCN5” value was “did not result in increased activity; also recorded: not affected”.
